# In ChEMBL document CHEMBL1136322, “QSAR study on antibacterial activity of sulphonamides and derived Mannich bases” (Bioorg Med Chem Lett, 2003):
# Key:
# [1] = system: Bacillus subtilis; experiment: Antibacterial activity against Bacillus subtilis at a concentration of 120 ug/mL; assay type: functional
# [2] = system: Bacillus subtilis; experiment: Antibacterial activity against Bacillus subtilis at a concentration of 160 ug/mL; assay type: functional
# [3] = system: Bacillus subtilis; experiment: Antibacterial activity against Bacillus subtilis at a concentration of 40 ug/mL; assay type: functional
# [4] = system: Bacillus subtilis; experiment: Antibacterial activity against Bacillus subtilis at a concentration of 80 ug/mL; assay type: functional
# [5] = system: Escherichia coli; experiment: Antibacterial activity against Escherichia coli at a concentration of 10 ug/mL; assay type: functional
# [6] = system: Escherichia coli; experiment: Antibacterial activity against Escherichia coli at a concentration of 20 ug/mL; assay type: functional
# [7] = system: Escherichia coli; experiment: Antibacterial activity against Escherichia coli at a concentration of 40 ug/mL; assay type: functional
# [8] = system: Escherichia coli; experiment: Antibacterial activity against Escherichia coli at a concentration of 80 ug/mL; assay type: functional
# [9] = Lethal dose after intraperitoneal administration in mice; assay type: toxicity; conditions: mouse, in vivo, ip
# [10] = Toxic effect after oral administration (6400 mg/kg) was determined in mice; No effect; assay type: toxicity, organism-based; conditions: mouse, in vivo
# [11] = system: Klebsiella pneumoniae; experiment: Antibacterial activity against Klebsiella pneumoniae at a concentration of 120 ug/mL; assay type: functional
# [12] = system: Klebsiella pneumoniae; experiment: Antibacterial activity against Klebsiella pneumoniae at a concentration of 40 ug/mL; assay type: functional
# [13] = system: Klebsiella pneumoniae; experiment: Antibacterial activity against Klebsiella pneumoniae at a concentration of 80 ug/mL; assay type: functional
# [14] = system: Klebsiella pneumoniae; experiment: Antibacterial activity against Klebsiella pneumoniae at a concentration of 160 ug/mL; assay type: functional
SMILES,Zone of inhibition [1] [mm],Zone of inhibition [2] [mm],Zone of inhibition [3] [mm],Zone of inhibition [4] [mm],Zone of inhibition [5] [mm],Zone of inhibition [6] [mm],Zone of inhibition [7] [mm],Zone of inhibition [8] [mm],Lethal dose [9] [mg/kg],Toxic effect [10],Zone of inhibition [11] [mm],Zone of inhibition [12] [mm],Zone of inhibition [13] [mm],Zone of inhibition [14] [mm]
Cc1cc(C)nc(NS(=O)(=O)c2ccc(NCNC(=O)c3ccc(NC(=O)c4cccnc4)cc3)cc2)n1,13.6,17.6,6,11.2,11.4,13.9,13.7,14.1,1000,Not Active,–,–,–,–
Cc1cc(NS(=O)(=O)c2ccc(NCNC(=O)c3ccc(NC(=O)c4cccnc4)cc3)cc2)no1,20.7,23.5,14.1,18.6,11.3,11.5,11.8,13.4,1000,Not Active,14.4,12.5,14.7,13.7
O=C(NCNc1ccc(S(=O)(=O)Nc2ncccn2)cc1)c1ccc(NC(=O)c2cccnc2)cc1,22.9,25.3,15.4,20.4,10.4,10.6,13.7,18.7,1000,Not Active,19.2,18.9,18.3,20.9
N=C(N)NS(=O)(=O)c1ccc(NCNC(=O)c2ccc(NC(=O)c3cccnc3)cc2)cc1,–,–,–,–,10.9,11.4,11,11.7,1000,Not Active,–,–,–,–
Cc1nnc(NS(=O)(=O)c2ccc(NCNC(=O)c3ccc(NC(=O)c4cccnc4)cc3)cc2)s1,–,–,–,–,12.4,14.9,14.4,15,1000,Not Active,–,–,–,–
NS(=O)(=O)c1ccc(NCNC(=O)c2ccc(NC(=O)c3cccnc3)cc2)cc1,–,–,–,–,13.1,12.7,13.2,13.2,–,–,13.7,11.1,12,21.4
Nc1ccc(S(=O)(=O)Nc2ncccn2)cc1 [SULFADIAZINE],26.3,26.9,20.8,27.2,9.7,17.2,22.2,25.5,–,–,29.5,27,29.2,25.6
Cc1cc(C)nc(NS(=O)(=O)c2ccc(N)cc2)n1 [SULFAMETHAZINE],21.7,22,15.4,19.9,15.1,16.9,18.8,18.5,–,–,–,–,–,–
Cc1nnc(NS(=O)(=O)c2ccc(N)cc2)s1 [SULFAMETHIZOLE],–,–,–,–,16.2,17.4,22.2,25.5,–,–,–,–,–,–
Cc1cc(NS(=O)(=O)c2ccc(N)cc2)no1 [SULFAMETHOXAZOLE],27.4,27.9,22.8,25.4,19.6,22.9,23.2,23.6,–,–,26.4,11.6,22.4,6
Nc1ccc(S(N)(=O)=O)cc1 [SULFANILAMIDE],–,–,–,–,20.4,22.3,22.8,25.4,–,–,–,–,–,–
